Legend:
Fusarium solani Cutinase = Fusarium solani Cutinase (Fusarium vanettenii, UniProt P00590); type: biochemical, Fusarium solani pisi
[1] = target: Mycobacterium tuberculosis Rv0183 (monoglyceride lipase) (Mycobacterium tuberculosis, UniProt O07427); type: biochemical
[2] = target: Mycobacterium tuberculosis LipY (triacylglycerol lipase) (Mycobacterium tuberculosis, UniProt I6Y2J4); type: biochemical
LipY = target: T1, LipY (Mycobacterium tuberculosis, UniProt I6Y2J4); type: binding
T1 sequence (I6Y2J4 1-437): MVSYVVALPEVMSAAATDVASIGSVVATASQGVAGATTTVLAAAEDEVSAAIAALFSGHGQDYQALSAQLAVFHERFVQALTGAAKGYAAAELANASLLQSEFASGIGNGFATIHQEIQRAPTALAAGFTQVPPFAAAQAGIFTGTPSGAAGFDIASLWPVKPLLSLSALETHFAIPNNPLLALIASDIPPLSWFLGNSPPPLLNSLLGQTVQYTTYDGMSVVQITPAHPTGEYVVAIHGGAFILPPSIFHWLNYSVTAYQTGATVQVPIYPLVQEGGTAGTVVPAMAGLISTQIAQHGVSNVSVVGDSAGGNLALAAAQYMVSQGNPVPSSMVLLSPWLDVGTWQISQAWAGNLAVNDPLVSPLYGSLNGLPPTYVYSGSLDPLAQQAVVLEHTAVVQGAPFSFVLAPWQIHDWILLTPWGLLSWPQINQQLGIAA

Chain of Fusarium solani Cutinase (P00590 17-230): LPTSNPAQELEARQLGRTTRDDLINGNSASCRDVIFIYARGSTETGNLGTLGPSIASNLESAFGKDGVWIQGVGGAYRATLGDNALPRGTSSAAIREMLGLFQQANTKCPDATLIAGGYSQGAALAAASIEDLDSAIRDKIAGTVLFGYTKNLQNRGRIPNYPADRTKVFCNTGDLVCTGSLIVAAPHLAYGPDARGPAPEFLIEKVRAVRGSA
Chain of Mycobacterium tuberculosis Rv0183 (monoglyceride lipase) (O07427 whole entry, looked up): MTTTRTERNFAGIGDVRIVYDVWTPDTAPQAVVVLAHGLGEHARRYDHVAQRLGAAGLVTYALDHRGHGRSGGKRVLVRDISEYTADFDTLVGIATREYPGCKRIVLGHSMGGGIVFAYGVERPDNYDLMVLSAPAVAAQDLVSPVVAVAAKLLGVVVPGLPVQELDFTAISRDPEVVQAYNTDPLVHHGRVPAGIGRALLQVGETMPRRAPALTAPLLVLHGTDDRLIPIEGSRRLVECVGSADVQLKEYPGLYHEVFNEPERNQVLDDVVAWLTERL

SMILES	DI (Diastereoselectivity Index between trans-(α) and cis-(β) isomers), Cutinase (Fusarium solani Cutinase) [%]	DI (Diastereoselectivity Index between trans-(α) and cis-(β) isomers), Rv0183 [1] [%]	DI (Diastereoselectivity Index between trans-(α) and cis-(β) isomers), LipY [2] [%]	also measured
CCCCCCCCCCC1CCP(=O)(OC)OC(C)=C1C(=O)OC (racemic) [Compound 7(β), (±) Methyl 5-decyl-2-methoxy-7-methyl-2,3,4,5-tetrahydro-1,2-oxaphosphepine-6-carboxylate 2-oxide]	76.2	51.9	80.3	half-inactivation time (t1/2), Rv0183 [1]: 86.4 s; residual lipase activity (plateau), Rv0183 [1]: around 6.0%
CCCCCCCCCCCCC1CCP(=O)(OC)OC(C)=C1C(=O)OC (racemic) [8(β), (±) Methyl 5-dodecyl-2-methoxy-7-methyl-2,3,4,5-tetrahydro-1,2-oxaphosphepine-6-carboxylate 2-oxide]	29.0	36.3	28.0	–
CO[P@]1(=O)OC[C@H]2COC(=O)C2=C(C)O1 [Compound 1, Cyclophostin]	–	–	–	half-inactivation time (t1/2), Cutinase (Fusarium solani Cutinase): 10.8 s; residual lipase activity (plateau), Cutinase (Fusarium solani Cutinase): around 6.0%; xI50 (inhibitor molar excess leading to 50% lipase inhibition), LipY [2]: > 100
CCCCCC1CCP(=O)(OC)OC(C)=C1C(=O)OC (racemic) [6(α), (±) Methyl 2-methoxy-7-methyl-5-pentyl-2,3,4,5-tetrahydro-1,2-oxaphosphepine-6-carboxylate 2-oxide]	89.7	16.7	–	xI50 (inhibitor molar excess leading to 50% lipase inhibition), LipY [2]: > 100
CCCCCCCCCCCCCCCCCCC1CCP(=O)(OC)OC(C)=C1C(=O)OC (racemic) [10(β), (±) Methyl 2-methoxy-7-methyl-5-octadecyl-2,3,4,5-tetrahydro-1,2-oxaphosphepine-6-carboxylate 2-oxide]	72.1	> 93.0	81.3	–
CCCCCCCCCCCCCCCCC1CCP(=O)(OC)OC(C)=C1C(=O)OC (racemic) [9(α), (±) Methyl 5-hexadecyl-2-methoxy-7-methyl-2,3,4,5-tetrahydro-1,2-oxaphosphepine - 6-carboxylate 2-oxide]	27.2	> 97.0	70.5	–
CCCCCCCCCCCCC1CCP(=O)(OC)OC(C)=C1C(=O)OC (racemic) [8(α), (±) Methyl 5-dodecyl-2-methoxy-7-methyl-2,3,4,5-tetrahydro-1,2-oxaphosphepine-6-carboxylate 2-oxide]	29.0	36.3	28.0	–
CCCCCCCCCCCCCCCCCCC1CCP(=O)(OC)OC(C)=C1C(=O)OC (racemic) [10(α), (±) Methyl 2-methoxy-7-methyl-5-octadecyl-2,3,4,5-tetrahydro-1,2-oxaphosphepine-6-carboxylate 2-oxide]	72.1	> 93.0	81.3	–
CCCCCC1CCP(=O)(OC)OC(C)=C1C(=O)OC (racemic) [6(β), (±) Methyl 2-methoxy-7-methyl-5-pentyl-2,3,4,5-tetrahydro-1,2-oxaphosphepine-6-carboxylate 2-oxide]	89.7	16.7	–	xI50 (inhibitor molar excess leading to 50% lipase inhibition), LipY [2]: > 100
CCCCCCCCCCC1CCP(=O)(OC)OC(C)=C1C(=O)OC (racemic) [7(α), (±) Methyl 5-decyl-2-methoxy-7-methyl-2,3,4,5-tetrahydro-1,2-oxaphosphepine-6-carboxylate 2-oxide]	76.2	51.9	80.3	–
CCCCCCCCCCCCCCCCOP1(=O)CCCC(C(=O)OC)=C(C)O1 (stereo not shown) [Compound 11, Methyl 7-methyl-2-(hexadecyloxy)-2,3,4,5-tetrahydro-1,2-oxaphosphepine-6-carboxylate 2-oxide]	–	–	–	half-inactivation time (t1/2), LipY [2]: 9.6 s; Mass modifications (inhibited minus native lipase), LipY (LipY): +443.8 Da
CCCCCCCCCCCCCCCCC1CCP(=O)(OC)OC(C)=C1C(=O)OC (racemic) [9(β), (±) Methyl 5-hexadecyl-2-methoxy-7-methyl-2,3,4,5-tetrahydro-1,2-oxaphosphepine - 6-carboxylate 2-oxide]	27.2	> 97.0	70.5	–

Source: article PMC3518039 (Journal of medicinal chemistry, 2012)
